Data as given in patent US9669035B2, “Combinations comprising PDE 2 inhibitors such as 1-aryl-4-methyl-[1,2,4]triazolo-[4,3-A]]quinoxaline compounds and PDE 10 inhibitors for use in the treatment of neurological of metabolic disorders” (Janssen Pharmaceutica NV, priority 2012, dated 2017).
Read-outs that look alike come from different tables or passages of the source.

Key:
[1] = system: d-Amphetamine-induced hyperlocomotion in rats; test: Inhibition of d-amphetamine-induced hyperlocomotion in rats in combination with Compound A and Compound B (FIGS. 9, 10); assay type: in vivo; conditions: Rattus norvegicus, sc
Experimental: Shown are individual values (open and closed circles for PDE2-i at 0 and 10 mg/kg, respectively) and median values (horizontal lines) for distance traveled per dose group. The dotted horizontal lines represent the criteria adopted for drug-induced effects (<5500 and <1100 cm). In FIG. 9: * p<0.05, ** p<0.01, *** p<0.001 (Bonferroni posttests 0 vs 10 mg/kg).
The dotted horizontal lines represent the critical levels for drug-induced effects (<5500 cm and <1100 cm).
Shown are individual values (open and closed circles for PDE2-i at 0 and 10 mg/kg, respectively) and median values (horizontal lines) for distance traveled per dose group. The dotted horizontal lines represent the criteria adopted for drug-induced effects (<5500 and <1100 cm). […] This is also reflected in the listed ED50 values.

[2] = system: Apomorphine-induced agitation in rats; test: Inhibition of apomorphine-induced agitation in rats in combination with Compound A and Compound B (FIGS. 4, 5); assay type: in vivo; conditions: Rattus norvegicus, sc
Experimental: Shown are individual scores (open and closed circles for PDE2-i at 0 and 10 mg/kg, respectively) and median scores (horizontal lines) for agitation per dose group. In FIG. 4: * p<0.05, ** p<0.01, *** p<0.001 (Bonferroni posttests 0 vs 10 mg/kg).
In FIG. 5: * p<0.05 (Dunnett's Multiple Comparison Test vs. 0 mg/kg)
Shown are individual scores (open and closed circles for PDE2-i at 0 and 10 mg/kg, respectively) and median scores (horizontal lines) for agitation per dose group. […] This is also reflected in the listed ED50 values.

[3] = system: Apomorphine-induced agitation in rats; test: Inhibition of apomorphine-induced agitation in rats in combination with MP-10; assay type: in vivo, rat; conditions: SC, MP-10 (0.63 mg/kg) + apomorphine (1.0 mg/kg) i.v.
Experimental: Inhibition of Apomorphine-induced Agitation in Rats in combination with MP-10 but the animals were simultaneously challenged with MP-10 (0.63 mg/kg) in addition to apomorphine (1.0 mg/kg) via one injection (2 ml/kg, i.v.), at a fixed time interval (standard 1 h) after s.c. or p.o. dosing of test compound or solvent. Twelve times, every 5 min, the intensity of agitation was scored 0 to 3.

[4] = system: d-Amphetamine-induced hyperlocomotion in rats; test: d-Amphetamine-induced hyperlocomotion in rats: potentiation of the effect of MP-10; assay type: in vivo, rat; conditions: SC, d-amphetamine (1.25 mg/kg, s.c.) + MP-10 (2.5 mg/kg, s.c.)
[5] = system: cAMP and cGMP levels in the rat brain (hippocampus and striatum); conditions: in vivo
[6] = target: Rat recombinant PDE10A (rPDE10A2) (Rattus norvegicus (Rat), UniProt Q9QYJ6); test: In vitro assay PDE10A (SPA, 3H-cAMP); assay type: biochemical
Rat recombinant PDE10A (rPDE10A2), sequence (Q9QYJ6 whole entry): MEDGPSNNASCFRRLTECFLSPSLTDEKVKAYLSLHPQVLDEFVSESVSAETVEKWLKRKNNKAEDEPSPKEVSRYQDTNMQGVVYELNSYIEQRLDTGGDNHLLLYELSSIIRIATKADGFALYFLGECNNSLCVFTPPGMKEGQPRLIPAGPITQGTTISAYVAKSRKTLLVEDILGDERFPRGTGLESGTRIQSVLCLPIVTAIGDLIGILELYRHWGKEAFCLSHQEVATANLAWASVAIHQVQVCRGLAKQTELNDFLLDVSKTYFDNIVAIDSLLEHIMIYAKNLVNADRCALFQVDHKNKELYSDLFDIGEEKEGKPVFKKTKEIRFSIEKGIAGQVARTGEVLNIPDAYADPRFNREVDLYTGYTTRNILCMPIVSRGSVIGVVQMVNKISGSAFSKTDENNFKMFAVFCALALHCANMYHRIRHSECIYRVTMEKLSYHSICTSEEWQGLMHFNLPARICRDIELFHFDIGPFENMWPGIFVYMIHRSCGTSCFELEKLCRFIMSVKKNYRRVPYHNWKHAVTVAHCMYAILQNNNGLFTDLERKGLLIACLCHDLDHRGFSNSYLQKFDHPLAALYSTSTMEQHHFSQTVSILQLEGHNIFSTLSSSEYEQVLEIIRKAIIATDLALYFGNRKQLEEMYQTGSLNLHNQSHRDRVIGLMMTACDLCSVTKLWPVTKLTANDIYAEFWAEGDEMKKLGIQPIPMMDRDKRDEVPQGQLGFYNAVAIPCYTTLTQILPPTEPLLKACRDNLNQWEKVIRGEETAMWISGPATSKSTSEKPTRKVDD

[7] = target: PDE2 (Rattus norvegicus (Rat), UniProt Q01062); test: Potentiation of in vivo [3H]B-1a binding to PDE2 by MP-10 (ex vivo autoradiography)
[8] = system: d-Amphetamine-induced hyperlocomotion in rats; test: d-Amphetamine-induced hyperlocomotion in rats: MP-10 or B-1a alone (FIGS. 6-8); assay type: in vivo, rat
[9] = system: cGMP levels in the rat brain; conditions: 2.5 mpk
[10] = system: Apomorphine-induced agitation in rats; test: Apomorphine-induced agitation: MP-10 (s.c.) dose-response with co-administered B-1a (FIGS. 1-3); assay type: in vivo, rat
[11] = read-out: ED50 (95% confidence limits) for reducing distance traveled to <1100 cm, PDE10-i s.c., -1 h, co-treatment with B-1a 0 mg/kg
[12] = read-out: ED50 (95% confidence limits) for reducing distance traveled to <1100 cm, PDE10-i s.c., -1 h, co-treatment with B-1a 10 mg/kg s.c.
[13] = read-out: ED50 (95% confidence limits) for reducing distance traveled to <5500 cm, PDE10-i s.c., -1 h, co-treatment with B-1a 0 mg/kg
[14] = read-out: ED50 (95% confidence limits) for reducing distance traveled to <5500 cm, PDE10-i s.c., -1 h, co-treatment with B-1a 10 mg/kg s.c.
[15] = read-out: ED50 (95% confidence limits) for reducing agitation score to <5, PDE10-i s.c., -1 h, co-treatment with B-1a 0 mg/kg
[16] = read-out: ED50 (95% confidence limits) for reducing agitation score to <5, PDE10-i s.c., -1 h, co-treatment with B-1a 10 mg/kg s.c.
[17] = read-out: ED50 (95% confidence limits) for reducing agitation score to <10, PDE10-i s.c., -1 h, co-treatment with B-1a 0 mg/kg
[18] = read-out: ED50 (95% confidence limits) for reducing agitation score to <10, PDE10-i s.c., -1 h, co-treatment with B-1a 10 mg/kg s.c.
[19] = read-out: ED50 (95% confidence limits) for reducing agitation score to <21, PDE10-i s.c., -1 h, co-treatment with B-1a 0 mg/kg
[20] = read-out: ED50 (95% confidence limits) for reducing agitation score to <21, PDE10-i s.c., -1 h, co-treatment with B-1a 10 mg/kg s.c.

COCCc1ccc(-c2c(C)nc3c(N4CCOCC4)ccnn23)cn1 [Compound A]
ED50 [1, 11]: > 40 mg/kg | ED50 [1, 12]: 6.2 mg/kg | ED50 [1, 13]: 0.89 mg/kg | ED50 [1, 14]: 0.67 mg/kg | ED50 [2, 15]: ≥ 40 mg/kg | ED50 [2, 16]: 12.4 mg/kg | ED50 [2, 17]: 16.3 mg/kg | ED50 [2, 18]: 6.2 mg/kg | ED50 [2, 19]: 2.71 mg/kg | ED50 [2, 20]: 3.1 mg/kg

CCCCOc1ccc(Cl)c(-c2nnc3c(C)nc4ccc(CN(C)C)cc4n23)c1 [Compound B-11]
Inh. of agitation < 10 Effect (cumulative agitation score) ([3]; Time 60, dose 2.5): 17 | Inh. of agitation < 10 Effect (cumulative agitation score) ([3]; Time 60, dose 10): 7 | Distance Total <2500 cm Effect ([4]; Time -60, dose 2.5): 3494 cm | Distance Total <2500 cm Effect ([4]; Time -60, dose 10): 1960 cm | Hippocampus cAMP (% of Control) [5]: 117 ± 20 % of Control | Hippocampus cGMP (% of Control) [5]: 150 ± 42 % of Control | Striatum cAMP (% of Control) [5]: 88 ± 12 % of Control | Striatum cGMP (% of Control) [5]: 121 ± 20 % of Control | PIC50 PDE10 [6]: 5.67

CCCCOc1cncc(-c2nnc3c(C)nc4ccc(CN(C)C)cc4n23)c1 [Compound B-27]
Inh. of agitation < 10 Effect (cumulative agitation score) ([3]; Time 60, dose 10): 14 | Distance Total <2500 cm Effect ([4]; Time -60, dose 2.5): 4145 cm | Distance Total <2500 cm Effect ([4]; Time -60, dose 10): 2500 cm | Hippocampus cAMP (% of Control) [5]: 122 ± 10 % of Control | Hippocampus cGMP (% of Control) [5]: 104 ± 32 % of Control | Striatum cAMP (% of Control) [5]: 89 ± 6 % of Control | Striatum cGMP (% of Control) [5]: 128 ± 26 % of Control | PIC50 PDE10 [6]: 5.03

Cc1nc2c(N3CCOCC3)nccn2c1-c1ccc(C2CCOCC2)nc1 [Compound B]
ED50 [1, 11]: > 40 mg/kg | ED50 [1, 12]: 16.3 mg/kg | ED50 [1, 13]: 3.1 mg/kg | ED50 [1, 14]: 2.04 mg/kg | ED50 [2, 15]: ≥ 40 mg/kg | ED50 [2, 16]: 10.8 mg/kg | ED50 [2, 17]: 32 mg/kg | ED50 [2, 18]: 6.2 mg/kg | ED50 [2, 19]: 2.71 mg/kg | ED50 [2, 20]: 2.36 mg/kg

COC(=O)[C@@H](N)CCCNC(=N)N[N+](=O)[O-] [L-NAME]
effect of pre-treatment on potentiation of [3H]B-1a binding by MP-10 ([7]; pre-treatment): prevented the potentiation

Cn1cc(-c2ccncc2)c(-c2ccc(OCc3ccc4ccccc4n3)cc2)n1 [MP-10, 2-{[4-(1-methyl-4-pyridin-4-yl-1H-pyrazol-3-yl)phenoxy]methyl}quinoline]
ED50 ([8]; Rattus norvegicus, sc, read-out: ED50 for reducing d-amphetamine-induced hyperlocomotion to a distance <1000 cm, MP-10 (-1 h, s.c.) alone, historical data): > 40 mg/kg | effect on d-amphetamine-induced hyperlocomotion, alone ([8]; up to 40 mg/kg s.c.): almost never achieves values <2500 cm | mean nmol cGMP/ml [9]: 8.7 nmol cGMP/ml | fold increase ([9]; cGMP vs vehicle): 1.4 | incr vs contr (pmol cGMP/ml) (measured) ([9]; increase versus control): 2.4 pmol cGMP/ml | effect on apomorphine-induced agitation (median score) ([10]; MP-10 -1 h, s.c., with B-1a or solvent): dose-dependently inhibited agitation | median agitation scores <10 ([10]; MP-10 up to 10 mg/kg, co-administered B-1a <=0.63 mg/kg): not obtained | in vivo [3H]B-1a binding expressed as % of binding in vehicle-treated rats, AVG ([7]; dose MP-10 0.63 mpk): 80% | in vivo [3H]B-1a binding expressed as % of binding in vehicle-treated rats, AVG ([7]; dose MP-10 2.5 mpk): 302% | in vivo [3H]B-1a binding expressed as % of binding in vehicle-treated rats, AVG ([7]; dose MP-10 10 mpk): 501% | in vivo [3H]B-1a binding expressed as % of binding in vehicle-treated rats, AVG ([7]; dose MP-10 40 mpk): 739%
